We go through 11 compounds from ChEMBL document CHEMBL1201862, “PubChem BioAssay data set” (2004).

Values joined by “and” are separate entries in the source; they are usually repeats but may differ in a detail not shown here. Identical values can stand only once.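 Dose response: 5 concentrations. Exposure: 48 h. Format: 96-well plates. Endpoint: linear interpolation; highest concentration if not reached. Here, GI50 denotes the concentration required for 50% inhibition of growth.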 Active and inactive are the calls of the source. Rule as the data show it: active = GI50 up to about 1.1 µM and inactive = higher.

Among the test systems are 786-0; ACHN; CAKI-1; HCT-116; HOP-92; HT-29; KM12; LOX IMVI; M14; MDA-N; NCI-H460; OVCAR-4; SF-295; HCC 2998; IGROV-1; MDA-MB-231; OVCAR-8; TK-10; UACC-62; T47D.
Holding throughout (assay): NCI-60 cell line screen, 48 h

As to `CCOC(=O)c1c(-c2ccc(O)c(OC)c2)c(C#N)c(=S)n(C2OC(COC(C)=O)C(OC(C)=O)C(OC(C)=O)C2OC(C)=O)c1-c1ccccc1` (configuration not stated), the GI50 with 786-0 was 71.6 µM (inactive) and 52.5 µM (inactive); in the assay on ACHN, 48.8 µM (inactive) and 61.8 µM (inactive); with CAKI-1 it was 65.2 µM (inactive); in the assay on HCT-116, 47.9 µM (inactive) and 63.2 µM (inactive); in the assay with HOP-92, 24.9 µM (inactive); in the assay with HT-29, 59.7 µM (inactive) and 32.1 µM (inactive). Moreover, the GI50 in the assay on KM12 was 45.4 µM (inactive) and 50.8 µM (inactive); in the assay with LOX IMVI it was 35.4 µM (inactive) and 48 µM (inactive); in the assay on M14 it was 82.4 µM (inactive); in the assay on MDA-N it was 61.7 µM (inactive) and 39.4 µM (inactive); in the assay with NCI-H460, > 100 µM (inactive) and 70.1 µM (inactive); in the assay on OVCAR-4 it was > 100 µM (inactive). In addition, the GI50 in the assay on SF-295 was > 100 µM (inactive).

Regarding `O=C1C2=Cc3ccccc3CCN2c2ccc([N+](=O)[O-])cc21`, the GI50 with 786-0 is > 100 µM (inactive); with ACHN, 43.2 µM (inactive); in the assay on CAKI-1, 69.3 µM (inactive); with HCC 2998, > 100 µM (inactive); in the assay on HCT-116, > 100 µM (inactive); in the assay on HOP-92, 41.2 µM (inactive). The GI50 is > 100 µM (inactive) in the assay with HT-29; > 100 µM (inactive) in the assay with IGROV-1; > 100 µM (inactive) in the assay with KM12; 92.7 µM (inactive) in the assay with LOX IMVI; > 100 µM (inactive) with M14; > 100 µM (inactive) in the assay with MDA-MB-231. Besides, the GI50 is > 100 µM (inactive) in the assay on MDA-N; 30.7 µM (inactive) in the assay with NCI-H460; > 100 µM (inactive) in the assay with OVCAR-4; 35.4 µM (inactive) with OVCAR-8; 36.6 µM (inactive) in the assay on SF-295; 83 µM (inactive) with TK-10. Also, the GI50 in the assay on UACC-62 is 55.5 µM (inactive).

For the compound `COc1cc(/C=C/C(=O)CC(=O)/C=C/c2cc(C)c(O)c(OC)c2)cc(C)c1O`, the GI50 with 786-0 is > 100 µM (inactive); with ACHN, > 100 µM (inactive); with CAKI-1 it was > 100 µM (inactive); with HCC 2998, > 100 µM (inactive); with HCT-116, 58.3 µM (inactive); in the assay on HOP-92, < 0.01 µM (active). Besides, the GI50 with HT-29, in the assay with IGROV-1, in the assay with KM12, in the assay on LOX IMVI, in the assay with M14 and in the assay on MDA-MB-231 was > 100 µM (inactive) throughout. Moreover, the GI50 in the assay with NCI-H460, in the assay on OVCAR-4, in the assay on OVCAR-8, in the assay on SF-295, in the assay on T47D and with UACC-62 was > 100 µM (inactive) each time.

For `CC1=CC(=O)/C(=C/n2c(=S)[nH]c3cc(C)ccc32)C(=O)O1`, the GI50 in the assay on 786-0, with ACHN, with CAKI-1, in the assay on HCC 2998, with HCT-116 and in the assay with HOP-92 was > 100 µM (inactive) each time. Moreover, the GI50 in the assay with HT-29, with IGROV-1, in the assay on KM12, in the assay with LOX IMVI, in the assay on M14 and with MDA-MB-231 was > 100 µM (inactive) in each case. Further, the GI50 in the assay with MDA-N was > 100 µM (inactive); with NCI-H460, > 100 µM (inactive); in the assay with OVCAR-4 it was 73.8 µM (inactive); in the assay on OVCAR-8, > 100 µM (inactive); with SF-295, > 100 µM (inactive); with TK-10 it was > 100 µM (inactive). In the assay with UACC-62, the GI50 is > 100 µM (inactive).

As to `O=C(Nc1ccc(F)cc1)c1cc2ccc(O)cc2o/c1=N\c1cccc(F)c1`, the GI50 is 39.9 µM (inactive) with 786-0; 32.8 µM (inactive) with ACHN; 32.7 µM (inactive) in the assay with CAKI-1; 55.6 µM (inactive) with HCC 2998; 35.4 µM (inactive) in the assay on HCT-116; > 100 µM (inactive) in the assay with HT-29. Moreover, the GI50 with IGROV-1 is 18.9 µM (inactive); in the assay with KM12 it was 29.9 µM (inactive); in the assay with LOX IMVI, 25.4 µM (inactive); in the assay with MDA-N, 38.8 µM (inactive); in the assay with NCI-H460, 31.7 µM (inactive); with OVCAR-4, 26 µM (inactive). Further, the GI50 in the assay with OVCAR-8 is 18.4 µM (inactive); in the assay on SF-295 it was 43.9 µM (inactive); in the assay with T47D it was 31.5 µM (inactive); in the assay with UACC-62, 42.8 µM (inactive).

`CCOC(=O)C(=O)/C(=C/NC(=S)Nc1ccc(Cl)c(Cl)c1)C(=O)OCC`: the GI50 in the assay on 786-0 is 89.7 µM (inactive); with ACHN, > 100 µM (inactive); in the assay with CAKI-1 it was 64.7 µM (inactive); with HCT-116, 75 µM (inactive); in the assay on HOP-92, 55.8 µM (inactive); in the assay on HT-29, 56.9 µM (inactive). Also, the GI50 was 85.9 µM (inactive) in the assay with IGROV-1; 86.5 µM (inactive) with KM12; > 100 µM (inactive) in the assay on LOX IMVI; 75.3 µM (inactive) in the assay on M14; > 100 µM (inactive) in the assay on MDA-MB-231; 61.2 µM (inactive) in the assay on MDA-N. For the same compound, the GI50 in the assay with NCI-H460 was > 100 µM (inactive); in the assay with OVCAR-4 it was 88.7 µM (inactive); with OVCAR-8 it was > 100 µM (inactive); in the assay on SF-295, > 100 µM (inactive); in the assay with TK-10, > 100 µM (inactive); in the assay on UACC-62 it was 57.8 µM (inactive).

For the compound `CCN(CC)c1ccc2cc(-c3nnc(-c4ccccc4O)o3)c(=O)oc2c1`, the GI50 was 8.99 µM (inactive) with 786-0; 10.2 µM (inactive) in the assay with ACHN; 11.5 µM (inactive) in the assay on CAKI-1; 13.6 µM (inactive) in the assay with HCC 2998; 5.97 µM (inactive) in the assay with HCT-116; 11.7 µM (inactive) in the assay with HT-29. For the same compound, the GI50 was 3.12 µM (inactive) with IGROV-1; 12.1 µM (inactive) in the assay on KM12; 6.73 µM (inactive) in the assay with LOX IMVI; 11.1 µM (inactive) with M14; 12.5 µM (inactive) in the assay on MDA-N; 7.08 µM (inactive) in the assay on NCI-H460. For the same compound, the GI50 in the assay with OVCAR-4 was 6.35 µM (inactive); in the assay with OVCAR-8, 2.4 µM (inactive); with SF-295 it was 11.1 µM (inactive); with UACC-62 it was 10.6 µM (inactive).

Turning to `NC(=O)C(=Cc1ccc(CP(=O)(O)O)cc1)C(N)=O`, the GI50 in the assay with 786-0, in the assay with ACHN, in the assay on CAKI-1, in the assay on HCC 2998, in the assay with HCT-116 and in the assay with HOP-92 was > 100 µM (inactive) in each case. Besides, the GI50 in the assay on HT-29, with IGROV-1, in the assay on KM12, with LOX IMVI, in the assay on M14 and with NCI-H460 was > 100 µM (inactive) throughout. Also, the GI50 in the assay with OVCAR-4, with OVCAR-8, in the assay with SF-295, in the assay with TK-10 and in the assay with UACC-62 was > 100 µM (inactive) each time.

For `CCCCNC1CCC2(SCCS2)c2[nH]c3ccccc3c21` (configuration not stated), the GI50 in the assay with 786-0 was 4.53 µM (inactive); in the assay with ACHN, 27.9 µM (inactive); in the assay on CAKI-1, 2.04 µM (inactive); in the assay with HCC 2998, 18.9 µM (inactive); in the assay with HCT-116, 7.4 µM (inactive); in the assay with HOP-92, 28.4 µM (inactive). In addition, the GI50 was 25.2 µM (inactive) in the assay on HT-29; 25.4 µM (inactive) in the assay on IGROV-1; 6.37 µM (inactive) with KM12; 2.64 µM (inactive) in the assay with LOX IMVI; 17.1 µM (inactive) with M14; 16.6 µM (inactive) in the assay with MDA-MB-231. Further, the GI50 in the assay with NCI-H460 is 33.3 µM (inactive); with OVCAR-4, > 54.1 µM (inactive); in the assay on OVCAR-8, 14.4 µM (inactive); in the assay on SF-295, 34.5 µM (inactive); in the assay with T47D, 2.56 µM (inactive); in the assay on TK-10 it was 13.2 µM (inactive). The GI50 with UACC-62 is 20.2 µM (inactive).

`O=C(O)CCSC(=O)Nc1ccc(/N=N/c2ccccc2)cc1`: the GI50 is > 100 µM (inactive) with 786-0; 43.6 µM (inactive) in the assay with ACHN; > 100 µM (inactive) in the assay on CAKI-1; > 100 µM (inactive) with HCC 2998; > 100 µM (inactive) in the assay with HCT-116; > 100 µM (inactive) in the assay on HOP-92. Besides, the GI50 in the assay with HT-29 is > 100 µM (inactive); in the assay with IGROV-1 it was 92.9 µM (inactive); with KM12, > 100 µM (inactive); with LOX IMVI it was > 100 µM (inactive); in the assay with M14, > 100 µM (inactive); with NCI-H460, > 100 µM (inactive). Besides, the GI50 with OVCAR-4 is 95.1 µM (inactive); in the assay with OVCAR-8 it was 61.1 µM (inactive); in the assay on SF-295 it was 64 µM (inactive); in the assay with TK-10, > 100 µM (inactive); in the assay with UACC-62 it was 59.4 µM (inactive).

For `CC(C)CC1[C@@H](OCc2ccccc2)COS(=O)N1Cc1ccccc1` (some centres not stated), the GI50 is 31.2 µM (inactive) in the assay with 786-0; 35 µM (inactive) in the assay on ACHN; 28.2 µM (inactive) with HCT-116; 15.6 µM (inactive) in the assay on HT-29; 31 µM (inactive) in the assay on IGROV-1; 26.8 µM (inactive) in the assay with KM12. In addition, the GI50 with LOX IMVI was 24.8 µM (inactive); with M14, 51.4 µM (inactive); with MDA-MB-231, 20.7 µM (inactive); in the assay with MDA-N it was 52.8 µM (inactive); in the assay with OVCAR-4, 44.2 µM (inactive); with OVCAR-8, 39 µM (inactive). The GI50 is 46.2 µM (inactive) in the assay on SF-295, 40 µM (inactive) in the assay with TK-10 and 60 µM (inactive) in the assay on UACC-62.
